For data set [1], the system named is A549. Nature of the data set: Antiproliferative activity against PNKP-depleted and DNA polymerase-beta dominant negative human A549 cells assessed as reduction in cell survival at 1 to 5 uM by MTS assay. The data set is classed as functional, cell-based. A general note: Tetrazolium dyes change colour on reduction, which living cells bring about.
Data set [2] concerns MDA-MB-231. Nature of the data set: Radiosensitizer activity in PNKP-depleted human MDA-MB-231 cells assessed as reduction in cell survival at 1 uM pre-incubated for 2 hrs prior to gamma irradiation and further incubated for 24 hrs and measured after 14 days by crystal violet staining based by clonogenic assay relative to control. Format: functional.
A short description of data set [3]: Cytotoxicity against human A549 cells assessed as reduction in cell proliferation at >100 uM incubated for 72 hrs by cell-titer 96 aqueous non-radioactive cell proliferation assay. Format: cell-based.
The test system of data set [4] is A549. The data set can be described thus: Cytotoxicity against human A549 cells assessed as reduction in cell proliferation at 1 uM incubated for 72 hrs by cell-titer 96 aqueous non-radioactive cell proliferation assay. The data set is classed as cell-based. Conditions: a549, 72 h.
Data set [5] in a line: Cytotoxicity against human MDA-MB-231 cells assessed as reduction in cell proliferation at >100 uM incubated for 72 hrs by cell-titer 96 aqueous non-radioactive cell proliferation assay. Format: cell-based.
Another data set has as its system M059J. Nature of the data set: Antiproliferative activity against human M059J cells expressing non-functional DNA dependent protein kinase assessed as reduction in cell survival at 1 to 5 uM by MTS assay. Format: cell-based.
For data set [6], the system named is MDA-MB-231. The data set can be described thus: Radiosensitizer activity in human MDA-MB-231 cells assessed as reduction in cell survival at 1 uM pre-incubated for 2 hrs prior to gamma irradiation and further incubated for 24 hrs and measured after 14 days by crystal violet staining based by clonogenic assay relative to control. The data set is classed as functional.

The subject of data set [7] is MDA-MB-231. Nature of the data set: Cytotoxicity against human MDA-MB-231 cells assessed as reduction in cell proliferation at 1 uM incubated for 72 hrs by cell-titer 96 aqueous non-radioactive cell proliferation assay. Conditions: mda-mb-231, 72 h. The data set is classed as cell-based.
In data set [8] the test system is A549. The data set can be described thus: Chemosensitizer activity in human A549 cells assessed as reduction in cell survival at 1 uM pre-incubated for 2 hrs prior to camptothecin and further incubated for 24 hrs and measured after 10 to 14 days by crystal violet staining based by clonogenic assay relative to control. The data set is classed as functional.
The species entered for data set [9] is Rattus norvegicus. The data set can be described thus: Inhibition of rat delta-calcineurin expressed in Escherichia coli assessed as reduction in phosphatase activity by measuring release of inorganic phosphate at 83.3 uM using 5'-TAMRA-tagged 20-mer oligonucleotide as substrate incubated for 30 mins by fluorescence quenching based assay.
Data set [10] concerns A549. The data set can be described thus: Radiosensitizer activity in human A549 cells assessed as reduction in cell survival at 1 uM pre-incubated for 2 hrs prior to gamma irradiation and further incubated for 24 hrs and measured after 14 days by crystal violet staining based by clonogenic assay relative to control. Format: functional.
Data set [11] addresses Bifunctional polynucleotide phosphatase/kinase (Mus musculus) (UniProt Q9JLV6). The data set can be described thus: Inhibition of mouse PNKP assessed as reduction in PNKP 3'-phosphatase activity by measuring release of inorganic phosphate at 5 to 50 uM using 5'-TAMRA-tagged 20-mer oligonucleotide as substrate incubated for 30 mins by fluorescence quenching based assay.
For data set [12], the system named is A549. Nature of the data set: Radiosensitizer activity in PNKP-depleted human A549 cells assessed as reduction in cell survival at 1 uM pre-incubated for 2 hrs prior to gamma irradiation and further incubated for 24 hrs and measured after 14 days by crystal violet staining based by clonogenic assay relative to control. Format: functional.
The target in data set [13] is Serine/threonine-protein phosphatase PP1-gamma catalytic subunit (Homo sapiens) (UniProt P36873). Nature of the data set: Inhibition of human PP-1cgamma expressed in Escherichia coli assessed as reduction in phosphatase activity by measuring release of inorganic phosphate at 83.3 uM using 5'-TAMRA-tagged 20-mer oligonucleotide as substrate incubated for 30 mins by fluorescence quenching based assay.
Serine/threonine-protein phosphatase PP1-gamma catalytic subunit (Homo sapiens), sequence (P36873 2-323 limits assumed): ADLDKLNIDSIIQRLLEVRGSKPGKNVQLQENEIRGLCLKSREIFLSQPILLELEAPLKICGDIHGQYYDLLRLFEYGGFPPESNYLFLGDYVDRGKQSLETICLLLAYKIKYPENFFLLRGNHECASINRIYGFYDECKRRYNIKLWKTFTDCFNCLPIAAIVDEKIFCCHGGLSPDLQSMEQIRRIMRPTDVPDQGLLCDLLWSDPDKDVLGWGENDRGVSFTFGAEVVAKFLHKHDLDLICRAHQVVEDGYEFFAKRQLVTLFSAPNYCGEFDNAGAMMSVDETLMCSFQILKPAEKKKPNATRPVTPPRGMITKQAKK

Another data set has as its target Aprataxin (Homo sapiens) (UniProt Q7Z2E3). The data set can be described thus: Inhibition of human APTX assessed as reduction in phosphatase activity by measuring release of inorganic phosphate at 50 uM using 5'-TAMRA-tagged 20-mer oligonucleotide as substrate incubated for 30 mins by fluorescence quenching based assay.
Data set [14] can be described thus: Cytotoxicity against human MDA-MB-231 cells assessed as reduction in cell proliferation at 100 uM incubated for 72 hrs by cell-titer 96 aqueous non-radioactive cell proliferation assay. The data set is classed as cell-based.
A short description of data set [15]: Cytotoxicity against human A549 cells assessed as reduction in cell proliferation at 100 uM incubated for 72 hrs by cell-titer 96 aqueous non-radioactive cell proliferation assay. Format: cell-based.
For data set [16], the species on record is Rattus norvegicus. The data set can be described thus: Inhibition of rat delta-calcineurin expressed in Escherichia coli assessed as reduction in phosphatase activity by measuring release of inorganic phosphate using 5'-TAMRA-tagged 20-mer oligonucleotide as substrate incubated for 30 mins by fluorescence quenching based assay.

Activity calls are given as the source filed them. The rule behind the calls is not given here. Starred links: 1 amine or outer side, 2 acyl side, 3 side chain; linkers in the order of their positions; H or OH if unused. Positions of bridges follow the written chain, without caps; N, C: chain ends. Non-standard residues stand in square brackets, D forms with d. Residues, ends and D or L forms follow the SMILES beside them. Adda = CO[C@@H](Cc1ccccc1)[C@@H](C)/C=C(C)/C=C/[C@H](N[*:1])[C@H](C)C(=O)[*:2]; dAsp(3S-Me) = C[C@H](C(=O)[*:3])[C@@H](N[*:1])C(=O)[*:2]; d(γGlu) = O=C(O)[C@@H](CCC(=O)[*:2])N[*:1]; NMeDha = C=C(NC)C(=O)O A value given as a limit tells only on which side of the number the result lay.

Bifunctional polynucleotide phosphatase/kinase (Mus musculus), sequence (Q9JLV6 whole entry): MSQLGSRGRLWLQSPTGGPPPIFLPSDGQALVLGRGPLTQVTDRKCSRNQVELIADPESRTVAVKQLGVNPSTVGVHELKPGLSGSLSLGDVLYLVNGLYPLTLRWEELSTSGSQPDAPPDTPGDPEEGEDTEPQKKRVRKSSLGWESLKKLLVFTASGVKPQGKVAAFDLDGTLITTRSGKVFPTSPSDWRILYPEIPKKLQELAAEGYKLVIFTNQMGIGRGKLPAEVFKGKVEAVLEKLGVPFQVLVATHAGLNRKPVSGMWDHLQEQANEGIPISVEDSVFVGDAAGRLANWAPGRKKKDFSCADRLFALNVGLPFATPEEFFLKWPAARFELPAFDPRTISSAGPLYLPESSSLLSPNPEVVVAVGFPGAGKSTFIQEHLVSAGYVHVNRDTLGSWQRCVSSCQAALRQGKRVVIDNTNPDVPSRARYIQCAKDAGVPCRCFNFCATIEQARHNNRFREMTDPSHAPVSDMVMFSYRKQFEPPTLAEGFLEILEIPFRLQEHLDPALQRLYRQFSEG
Aprataxin (Homo sapiens), sequence (Q7Z2E3 whole entry): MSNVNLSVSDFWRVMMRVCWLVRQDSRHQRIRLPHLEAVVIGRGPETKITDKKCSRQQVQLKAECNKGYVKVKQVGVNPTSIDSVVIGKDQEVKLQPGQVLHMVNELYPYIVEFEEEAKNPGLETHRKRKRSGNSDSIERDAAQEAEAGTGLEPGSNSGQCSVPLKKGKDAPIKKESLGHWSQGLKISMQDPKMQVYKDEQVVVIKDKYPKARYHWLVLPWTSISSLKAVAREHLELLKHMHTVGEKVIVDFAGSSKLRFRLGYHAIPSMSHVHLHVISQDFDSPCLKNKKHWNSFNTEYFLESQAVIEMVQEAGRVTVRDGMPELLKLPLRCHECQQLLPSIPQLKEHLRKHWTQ

As for `CCCCCCCCCCC(O)C1C=CC2C(=O)N(c3ccccc3)C(=O)C2N1Nc1ccc([N+](=O)[O-])cc1` (stereo not drawn), the outcome in the data set on A549 [1], with MDA-MB-231 [6] and in the data set on A549 [8] was Active. Further, the outcome in the data set on MDA-MB-231 [2], in the data set with M059J and in the data set with A549 [12] was inactive. Moreover, the inhibition at 72 h in data set [3] and in data set [5] was not above 50% each time. Moreover, the Activity result in the data set with A549 [4] and in the data set on MDA-MB-231 [7] was “Non-Toxic” each time. For the same molecule, the inhibition result (in the data set filed under Rattus norvegicus [9]; in data set [13]; on Aprataxin (Homo sapiens)) was “inactive” throughout. In the data set with A549 [10], the “fold change (FC)” value worked out at 2. Further, in data set [11], the inhibition (commonly how much of the control response was suppressed) is “Active”. Besides, the inhibition at 72 h, 100 µM in data set [14] and in [15] was not above 50% each time.

Take `C=C1C(=O)N[C@H](C)C(=O)N[C@@H](CC(C)C)C(=O)N[C@@H](C(=O)O)[C@H](C)C(=O)N[C@@H](CCCNC(=N)N)C(=O)N[C@@H](/C=C/C(C)=C/[C@H](C)[C@H](Cc2ccccc2)OC)[C@H](C)C(=O)N[C@@H](C(=O)O)CCC(=O)N1C` (R[Adda][d(γGlu)][NMeDha][dA]L[dAsp(3S-Me)]-OH; lactam N-7): the inhibition result in the data set listed under Rattus norvegicus [16] was “Active”.

The values above are taken from ChEMBL document CHEMBL4419172, “Small molecule inhibitors of polynucleotide kinase/phosphatase, poly(ADP-ribose) polymerase and uses thereof” (2017).
